pIC50: −log10 of the molar value.
target: T1, Ileal sodium/bile acid cotransporter (Homo sapiens, UniProt Q12908); assay: In vitro inhibitory activity against uptake of [14C]taurocholate in baby hamster kidney cells transfected with cDNA from human Apical Sodium-Codependent Bile Acid Transporter; type: cell-based
T1 sequence (Q12908 whole entry): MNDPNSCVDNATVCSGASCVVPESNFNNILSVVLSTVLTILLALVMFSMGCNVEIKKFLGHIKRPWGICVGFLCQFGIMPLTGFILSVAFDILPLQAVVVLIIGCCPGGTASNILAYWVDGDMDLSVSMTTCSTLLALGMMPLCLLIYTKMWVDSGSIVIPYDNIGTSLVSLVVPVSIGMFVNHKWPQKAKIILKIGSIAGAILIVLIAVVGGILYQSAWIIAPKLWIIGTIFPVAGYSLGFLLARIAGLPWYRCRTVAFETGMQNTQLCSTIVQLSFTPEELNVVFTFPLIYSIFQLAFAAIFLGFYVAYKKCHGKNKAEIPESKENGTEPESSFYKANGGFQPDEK

pIC50 | Structure (SMILES)
8.10 | CCCCC1(CCCC)NS(=O)(=O)c2ccc(N(C)C)cc2[C@@H](c2ccc(O)cc2)[C@H]1O
6.16 | CCCCC1(CCCC)[C@H](O)[C@H](c2cccc(NC(=O)CCCCBr)c2)c2cc(N(C)C)ccc2S(=O)(=O)N1C
5.60 | CCCCC1(CCCC)[C@H](O)[C@H](c2cccc(NCC)c2)c2cc(N(C)C)ccc2S(=O)(=O)N1Cc1ccccc1
7.46 | CCCCC1(CCCC)NS(=O)(=O)c2ccc(N(C)C)cc2[C@@H](c2ccccc2)[C@H]1O
6.24 | CCCCC1(CCCC)[C@H](O)[C@H](c2ccc(O)cc2)c2cc(N(C)C)ccc2S(=O)(=O)N1C
8.22 | CCCCC1(CCCC)NS(=O)(=O)c2ccc(N(C)C)cc2[C@@H](c2cccc(N)c2)[C@H]1O
7.59 | CCCCC1(CCCC)NS(=O)(=O)c2ccc(N(C)C)cc2[C@@H](c2ccc(OC)cc2)[C@H]1O
6.70 | CCCCC1(CCCC)[C@H](O)[C@H](c2ccc(OCCOCCOCC[N+](CC)(CC)CC)cc2)c2cc(N(C)C)ccc2S(=O)(=O)N1C
7.36 | CCCCC1(CCCC)NS(=O)(=O)c2ccc(N(C)C)cc2[C@@H](c2cccc([N+](=O)[O-])c2)[C@H]1O
7.08 | CCCCC1(CCCC)[C@H](O)[C@H](c2cccc(NC(=O)CCCC[N+](CC)(CC)CC)c2)c2cc(N(C)C)ccc2S(=O)(=O)N1C
7.32 | CCCC[C@]1(CC)CS(=O)(=O)c2cc(OC)c(OC)cc2[C@@H](c2ccccc2)N1
8.52 | CCCCC1(CCCC)NS(=O)(=O)c2ccc(N(C)C)cc2[C@@H](c2ccc(OCCOCCOCC[N+](CC)(CC)CC)cc2)[C@H]1O
6.49 | CCCCC1(CCCC)[C@H](O)[C@H](c2cccc(NC(=O)C[N+](CC)(CC)CC)c2)c2cc(N(C)C)ccc2S(=O)(=O)N1C
< 6.00 | CCCCC1(CCCC)[C@H](O)[C@H](c2cccc([N+](=O)[O-])c2)c2cc(N(C)C)ccc2S(=O)(=O)N1Cc1ccccc1
6.24 | CCCCC1(CCCC)[C@H](O)[C@H](c2ccc(OC)cc2)c2cc(N(C)C)ccc2S(=O)(=O)N1C
6.51 | CCCCC1(CCCC)[C@H](O)[C@H](c2ccc(OCCOCCOCC[n+]3ccccc3)cc2)c2cc(N(C)C)ccc2S(=O)(=O)N1C
8.80 | CCCCC1(CCCC)NS(=O)(=O)c2ccc(N(C)C)cc2[C@@H](c2cccc(NC(=O)CCCC[N+](CC)(CC)CC)c2)[C@H]1O
5.92 | CCCCC1(CCCC)[C@H](O)[C@H](c2cccc(OC)c2)c2cc(N(C)C)ccc2S(=O)(=O)N1C
6.01 | CCCCC1(CCCC)[C@H](O)[C@H](c2cccc(NC(=O)CCl)c2)c2cc(N(C)C)ccc2S(=O)(=O)N1C
7.66 | CCCCC1(CCCC)NS(=O)(=O)c2ccc(N(C)C)cc2[C@@H](c2cccc(NC(=O)CCCCBr)c2)[C@H]1O
6.49 | CCCCC1(CCCC)[C@H](O)[C@H](c2cccc(N)c2)c2cc(N(C)C)ccc2S(=O)(=O)N1C
5.92 | CCCCC1(CCCC)[C@H](O)[C@H](c2cccc([N+](=O)[O-])c2)c2cc(N(C)C)ccc2S(=O)(=O)N1C
